Assay type in all cases: physicochemical
Data set [1] can be described thus: CHX release rate from films. To be noted: CHX-1 film; phosphate buffer, 37° C., 1-8 hours; FIG. 3. As to the method:
Determining the CHX release rate from the films was conducted by first placing the films in 100 ml glass vessels, containing phosphate buffer at pH=5.0 and 6.8 and 50 cpm, at 37° C.
Then, 1 cc samples were taken from the glass vessels at pre-determined intervals (each hour from 1 to 8 hrs).
The released CHX concentration was measured spectrophotometrically at 260 nm (Uvikon 933: Kontron Instruments). The concentration of the CHX was calculated according to a reference curve.
(§1) In a different experiment, the films were kept at a pH 5.0 buffer for 2 hours, then at a pH 6.8 buffer for 2 hours, then at a pH 5.0 buffer for 2 hours and again at a pH 6.8 buffer for 2 hours. Samples were taken at similar intervals.

Data set [2] in a line: Clotrimazole release rate from films. To be noted: Clotrimazole-1 film. As to the method: Determining the clotrimazole release rate from the films was conducted by first placing the films in 350 ml glass vessels, containing Trizma base buffer (50 mM) with 0.2% SLS (sodium lauryl sulphate) at pH=5.0 and 6.8 and 50 cpm, at 37° C.
Then, 1 cc samples were taken from the glass vessels at pre-determined intervals (each hour from 1 to 8 hrs). The released clotrimazole concentration was measured spectrophotometrically at 206 nm (Uvikon 933: Kontron Instruments). The concentration of the […] was calculated according to a reference curve.
In a different experiment, the films were kept at a pH 5.0 buffer for 2 hours, then kept at a pH 6.8 buffer for 2 hours, then at a pH 5.0 buffer for 2 hours and again at a pH 6.8 buffer for 2 hours. Samples were taken at similar intervals.

Data set [3] is described as follows: Triclosane release rate from films. To be noted: Tric-1 film; Trizma base buffer 50 mM +10% SLS, 37° C.; pH 5.0 / 6.8 / 5.0 / 6.8, 2 hours each; FIG. 6. The method, then:
Determining the triclosane release rate from the films was conducted by first placing the films in 100 ml glass vessels, containing Trizma base buffer (50 mM, +10% SLS (sodium lauryl sulphate) at pH=5.0 and 6.8 at 50 rpm, at 37° C.
Then, 2 cc samples were taken from the glass vessels at pre-determined intervals (each hour from 1 to 8 hrs). The released triclosane concentration was measured spectrophotometrically at 280 nm (Uvikon 933: Kontron Instruments). The concentration of the triclosane was calculated according to a reference curve.
as §1

On to `CC(=O)O.CC(=O)O.NC(=N\CCCCCC/N=C(N)/N=C(\N)Nc1ccc(Cl)cc1)/N=C(\N)Nc1ccc(Cl)cc1` [CHX, Chlorhexidine-Diacetate], for which the “CHX release rate (as % of the initial amount in film), pH 5.0 compared with pH 6.8” value in data set [1] was “higher release rate at pH 5.0”. For the molecule `Clc1ccccc1C(c1ccccc1)(c1ccccc1)n1ccnc1` [clotrimazole, Clotrimazole], the “clotrimazole release rate (as % of the initial amount in film), pH 5.0 compared with pH 6.8” value in data set [2] (Trizma base buffer 50 mM with 0.2% SLS, 37° C., 1-8 hours, FIG. 1) is on record as “much faster”. Moreover, the “effect of pH 6.8 on clotrimazole release rate, pH change profile” value in data set [2] (pH 5.0 / 6.8 / 5.0 / 6.8, 2 hours each, FIG. 2) is reported as “retards the rate of release”. On to `Oc1cc(Cl)ccc1Oc1ccc(Cl)cc1Cl` [triclosane, Triclosane], for which, in data set [3], the “triclosane release rate at pH 5.0 compared with pH 6.8, pH change profile” value is recorded as “significantly faster”.

(Values after patent US20190099523A1, “FILM-FORMING COMPOSITION FOR A PH-DEPENDANT SUSTAINED RELEASE OF THE ACTIVE AGENT” (YISSUM RESEARCH DEVELOPMENT COMPANY OF THE HEBREW …, priority 2011, published 2019).)
